IC50 and half-life data for ten compounds are collected here from patent US20240391923A1, “METHIONINE ADENOSYLTRANSFERASE 2A INHIBITOR FOR TREATING MTAP DELETION-TYPE CANCER” (SUZHOU GENHOUSE BIO CO., LTD., priority 2022, published 2024).

pIC50: −log10 of the molar value. Read-outs that look alike come from different tables or passages of the source. Some results are limits rather than exact numbers.

One data set concerns the target T1, CYP2C9 (Homo sapiens, UniProt P11712).
T1 construct: from tissue; host or cells: liver microsome
Put plainly: Cytochrome oxidase P450 inhibition test, CYP2C9. Particulars: liver microsome incubation. The class given is in vitro ADME. On the procedure: (§1) 100 mM K-Buffer: 9.5 mL of stock solution A was mixed with 40.5 mL of stock solution B, the total volume was adjusted to […] with ultrapure water, and the buffer was titrated to pH 7.4 with KOH or H3PO4. • Starting material A (1 M potassium dihydrogen phosphate): 136.5 g of potassium dihydrogen phosphate in 1 L of water. • Stock B […] in 1 L of water. The test substance powder was prepared into a stock solution with a certain concentration using DMSO or other organic solvents, which was then further diluted using a proper organic solvent. The extracorporeal incubation system for CYP450 enzyme metabolism phenotype study was biochemical reaction of a prepared liver microsome, a redox coenzyme, and an enzyme-specific selective inhibitor in simulated physiological temperature and environment. The concentration of the parent drug or a metabolite thereof in the incubation solution was determined by LC-MS/MS.

Data set [1] relates to SDMA in human colon cancer cell line HCT116. The data set can be described thus: Cell symmetric dimethylarginine (SDMA) test, In-cell Western, HCT116 (MTAP wild-type). It counts as cell-based. Particulars: Homo sapiens, HCT-116, 96 h. Summed up: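 SDMA level, an indirect readout of cellular MAT2A inhibition, measured by In-cell Western as background-subtracted 800/700 nm signal against DRAQ5. Cells exposed 4 days to six 1:4-diluted doses from 6 μM; inhibition relative to DMSO, IC50 from sigmoidal fit.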

Another data set addresses T2, CYP2D6 (Homo sapiens, UniProt P10635).
T2 construct: from tissue; host or cells: liver microsome
The data set can be described thus: Cytochrome oxidase P450 inhibition test, CYP2D6. Particulars: liver microsome incubation. It counts as in vitro ADME. On the procedure:
as §1

Data set [2] has as its system SDMA in HCT116-MTAP-knockout cell line. The data set can be described thus: Cell symmetric dimethylarginine (SDMA) test, In-cell Western, HCT116-MTAP-knockout. It counts as cell-based. As to conditions: Homo sapiens, 96 h.
For another data set, the target named is T3, CYP1A2 (Homo sapiens, UniProt P05177).
T3 construct: from tissue; host or cells: liver microsome
T3 sequence (P05177 1-516): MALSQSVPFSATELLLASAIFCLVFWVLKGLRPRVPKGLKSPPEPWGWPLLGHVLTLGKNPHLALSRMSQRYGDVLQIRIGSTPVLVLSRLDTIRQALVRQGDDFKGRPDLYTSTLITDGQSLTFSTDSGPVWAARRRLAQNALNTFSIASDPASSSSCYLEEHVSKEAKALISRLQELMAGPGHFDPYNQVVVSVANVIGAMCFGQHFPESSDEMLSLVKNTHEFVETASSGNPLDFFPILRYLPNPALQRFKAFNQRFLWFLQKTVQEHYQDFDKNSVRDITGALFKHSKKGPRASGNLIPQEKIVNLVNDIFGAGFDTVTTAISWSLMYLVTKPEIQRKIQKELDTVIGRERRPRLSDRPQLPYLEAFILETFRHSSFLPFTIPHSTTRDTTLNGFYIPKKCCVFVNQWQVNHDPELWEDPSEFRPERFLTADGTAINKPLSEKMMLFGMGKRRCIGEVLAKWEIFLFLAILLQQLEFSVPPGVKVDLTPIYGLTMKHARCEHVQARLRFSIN
Put plainly: Cytochrome oxidase P450 inhibition test, CYP1A2. The class given is in vitro ADME. Particulars: liver microsome incubation. On the procedure: as §1

Another data set addresses T4, CYP2C19 (Homo sapiens, UniProt P33261).
T4 construct: from tissue; host or cells: liver microsome
Put plainly: Cytochrome oxidase P450 inhibition test, CYP2C19. The class given is in vitro ADME. As to conditions: liver microsome incubation. On the procedure: as §1

The nature of data set [3]: Stability test in liver microsomes, rat. It counts as in vitro ADME, Sprague-Dawley rats. Particulars: Sprague-Dawley; rat liver microsomes 0.5 mg/mL, 1.0 μM substrate, up to 60 min; read-out: Metabolic half-life in rat liver microsome (T½, min).
Data set [4] is described as follows: Stability test in liver microsomes, human. The class given is in vitro ADME, humans. Particulars: human liver microsomes 0.5 mg/mL, 1.0 μM substrate, up to 60 min; read-out: Metabolic half-life in human liver microsome ( T1/2, min).
The mark [5] stands for this setting: IC50 score class, read-out: Cell 96 h SDMA Inhibition (HCT116-MTAP+/+) (score).
Where [6] appears, read: read-out: Cell 96 h SDMA inhibition (HCT116-MTAP+/+).
Setting [7] is: IC50 score class, read-out: Cell 96 h SDMA Inhibition (HCT116-MTAP−/−) (score).
The mark [8] stands for this setting: read-out: Cell 96 h SDMA Inhibition (HCT116-MTAP−/−).

T2 sequence (P10635 whole entry): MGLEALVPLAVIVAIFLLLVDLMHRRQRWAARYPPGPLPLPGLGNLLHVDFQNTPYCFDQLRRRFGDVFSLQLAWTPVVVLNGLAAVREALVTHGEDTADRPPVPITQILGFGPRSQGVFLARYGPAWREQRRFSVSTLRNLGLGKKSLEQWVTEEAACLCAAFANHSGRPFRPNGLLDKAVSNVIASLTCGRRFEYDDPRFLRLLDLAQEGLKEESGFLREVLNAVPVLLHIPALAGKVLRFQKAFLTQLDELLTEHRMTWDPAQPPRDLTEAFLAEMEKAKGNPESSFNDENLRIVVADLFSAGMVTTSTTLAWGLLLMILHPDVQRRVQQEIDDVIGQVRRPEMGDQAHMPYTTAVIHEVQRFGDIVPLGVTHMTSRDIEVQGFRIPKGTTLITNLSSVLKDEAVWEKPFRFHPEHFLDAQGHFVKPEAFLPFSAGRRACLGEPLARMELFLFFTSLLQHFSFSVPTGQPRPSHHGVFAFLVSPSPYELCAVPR
T4 sequence (P33261 whole entry): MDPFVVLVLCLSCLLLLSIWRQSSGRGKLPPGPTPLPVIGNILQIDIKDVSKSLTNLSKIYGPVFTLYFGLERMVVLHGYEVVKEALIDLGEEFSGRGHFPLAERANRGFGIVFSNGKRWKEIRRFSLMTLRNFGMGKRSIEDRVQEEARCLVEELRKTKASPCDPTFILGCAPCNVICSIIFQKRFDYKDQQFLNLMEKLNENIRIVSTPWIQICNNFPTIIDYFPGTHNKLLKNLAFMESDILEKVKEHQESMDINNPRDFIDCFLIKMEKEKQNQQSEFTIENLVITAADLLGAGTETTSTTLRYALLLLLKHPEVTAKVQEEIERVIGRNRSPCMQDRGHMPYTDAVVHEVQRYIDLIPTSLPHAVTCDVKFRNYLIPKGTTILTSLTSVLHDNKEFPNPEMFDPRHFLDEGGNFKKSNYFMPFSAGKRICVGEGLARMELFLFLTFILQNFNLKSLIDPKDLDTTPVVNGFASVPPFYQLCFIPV
T1 sequence (P11712 whole entry): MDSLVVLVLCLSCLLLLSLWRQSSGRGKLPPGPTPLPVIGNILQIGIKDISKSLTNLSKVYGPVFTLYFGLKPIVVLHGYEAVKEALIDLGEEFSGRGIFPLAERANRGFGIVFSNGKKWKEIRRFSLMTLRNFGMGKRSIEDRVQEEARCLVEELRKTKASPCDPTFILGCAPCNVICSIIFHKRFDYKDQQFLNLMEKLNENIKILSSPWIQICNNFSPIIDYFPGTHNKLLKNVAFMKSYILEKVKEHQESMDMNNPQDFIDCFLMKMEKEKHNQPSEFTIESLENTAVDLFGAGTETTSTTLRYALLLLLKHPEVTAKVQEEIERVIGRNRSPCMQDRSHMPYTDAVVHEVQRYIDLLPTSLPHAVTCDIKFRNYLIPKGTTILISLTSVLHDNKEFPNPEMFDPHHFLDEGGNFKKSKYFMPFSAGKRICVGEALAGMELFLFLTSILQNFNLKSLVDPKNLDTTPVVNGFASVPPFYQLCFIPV

Take `Cc1ncccc1-n1c(=O)c2nn(C)cc2c2ccc(C(F)(F)F)nc21` (single isomer, unassigned) [Compound B180]: the pIC50 at CYP2C9 was under 5.00; in data set [1] (setting [5]), over 6.70; in data set [1] (setting [6]), 7.00; against CYP2D6, under 5.00; in data set [2] (setting [7]) it was over 6.70; in data set [2] (setting [8]), 7.99. Moreover, the pIC50 on CYP1A2 and on CYP2C19 was under 5.00 throughout.
`Cn1cc2c(n1)c(=O)n(-c1cccnc1)c1cc(Cl)ccc21` [Compound B12]: the pIC50 at CYP2C9 is under 5.00; in data set [1] (setting [5]), 5.52 to 6.00; in data set [1] (setting [6]), 5.85; against CYP2D6, under 5.00; in data set [2] (setting [7]), 6.00 to 6.70; in data set [2] (setting [8]) it was 6.66. Further, the pIC50 against CYP1A2 and against CYP2C19 was under 5.00 throughout. Also, the half-life at 1 μM in data set [3] and in data set [4] was over 145 min each time.
With `Cn1cc2c(n1)c(=O)n(-c1cccc3[nH]ncc13)c1cc(Cl)ccc21` [Compound B60], the pIC50 against CYP2C9 is under 5.00; in data set [1] (setting [5]), 6.00 to 6.70; in data set [1] (setting [6]), 6.33; on CYP2D6, under 5.00; in data set [2] (setting [7]), over 6.70; in data set [2] (setting [8]) it was 7.46. For the same compound, the pIC50 against CYP1A2 and on CYP2C19 was under 5.00 each time. In addition, the half-life at 1 μM in data set [3] was over 145 min; in data set [4], 722 min.
Take `Cn1cc2c(n1)c(=O)n(-c1cccc(O)c1)c1nc(C(F)(F)F)ccc21` [Compound B148]: the pIC50 in data set [1] (setting [5]) was 5.52 to 6.00; in data set [1] (setting [6]) it was 5.99; in data set [2] (setting [7]), over 6.70; in data set [2] (setting [8]) it was 7.31. In addition, the half-life at 1 μM is 142 min in data set [3] and over 145 min in data set [4].
On to `O=c1c2n[nH]cc2c2ccc(C(F)(F)F)nc2n1-c1cccnc1` [Compound B178], for which the pIC50 in data set [1] (setting [5]) was 5.52 to 6.00; in data set [1] (setting [6]), 5.97; in data set [2] (setting [7]) it was over 6.70; in data set [2] (setting [8]), 7.43.
Take `Cn1cc2c(n1)c(=O)n(-c1cccc3[nH]ncc13)c1nc(C(F)(F)F)ccc21` [Compound B181]: the pIC50 on CYP2C9 is under 4.52; in data set [1] (setting [5]), 6.00 to 6.70; in data set [1] (setting [6]) it was 6.32; at CYP2D6 it was under 4.52; in data set [2] (setting [7]), over 6.70; in data set [2] (setting [8]), 7.54. Further, the pIC50 against CYP1A2 and on CYP2C19 was under 4.52 each time. Further, the half-life at 1 μM in data set [3] and in data set [4] was over 145 min each time.
Regarding `Cn1cc2c(n1)c(=O)n(-c1ccccc1Cl)c1nc(C(F)(F)F)ccc21` [Compound B182], the pIC50 in data set [1] (setting [5]) is under 5.52; in data set [1] (setting [6]) it was under 5.52; in data set [2] (setting [7]), over 6.70; in data set [2] (setting [8]) it was 6.75. Moreover, the figures for the half-life at 1 μM in data set [3] and in data set [4] were 20.4 min and 258 min, respectively.
Turning to `Cn1cc2c(n1)c(=O)n(-c1cccc3[nH]ncc13)c1cc(Cl)c(F)cc21` [Compound B257], the pIC50 in data set [1] (setting [5]) is 5.52 to 6.00; in data set [1] (setting [6]) it was 5.67; in data set [2] (setting [7]), over 6.70; in data set [2] (setting [8]), 7.15.
The corresponding values for `Cn1cc2c(n1)c(=O)n(-c1cccc3[nH]ncc13)c1cc(Cl)c(C#N)cc21` [Compound B258] are under 5.52, under 5.00, over 6.70 and 7.17.
As for `Cn1cc2c(n1)c(=O)n(-c1cccnc1C1CC1)c1cc(Cl)c(F)cc21` [Compound B340], the pIC50 is under 5.52 in data set [1] (setting [5]), under 5.00 in data set [1] (setting [6]), over 6.70 in data set [2] (setting [7]) and 7.92 in data set [2] (setting [8]).
